Laboratory results taken from ChEMBL document CHEMBL1201862, “PubChem BioAssay data set” (2004).
Calls of active or inactive are those of the source.

How the values were obtained:
Protein RecA = biological target: T1, Protein RecA (Mycobacterium tuberculosis, UniProt P9WHJ3); test: Fluorescence Cell-Free Homogeneous Dose Retest to Identify Inhibitors of RecA-Intein Splicing Activity. [Related pubchem assays (depositor defined):AID2097, AID2223, AID489010, AID492950]; type: functional
T1 sequence (P9WHJ3 whole entry): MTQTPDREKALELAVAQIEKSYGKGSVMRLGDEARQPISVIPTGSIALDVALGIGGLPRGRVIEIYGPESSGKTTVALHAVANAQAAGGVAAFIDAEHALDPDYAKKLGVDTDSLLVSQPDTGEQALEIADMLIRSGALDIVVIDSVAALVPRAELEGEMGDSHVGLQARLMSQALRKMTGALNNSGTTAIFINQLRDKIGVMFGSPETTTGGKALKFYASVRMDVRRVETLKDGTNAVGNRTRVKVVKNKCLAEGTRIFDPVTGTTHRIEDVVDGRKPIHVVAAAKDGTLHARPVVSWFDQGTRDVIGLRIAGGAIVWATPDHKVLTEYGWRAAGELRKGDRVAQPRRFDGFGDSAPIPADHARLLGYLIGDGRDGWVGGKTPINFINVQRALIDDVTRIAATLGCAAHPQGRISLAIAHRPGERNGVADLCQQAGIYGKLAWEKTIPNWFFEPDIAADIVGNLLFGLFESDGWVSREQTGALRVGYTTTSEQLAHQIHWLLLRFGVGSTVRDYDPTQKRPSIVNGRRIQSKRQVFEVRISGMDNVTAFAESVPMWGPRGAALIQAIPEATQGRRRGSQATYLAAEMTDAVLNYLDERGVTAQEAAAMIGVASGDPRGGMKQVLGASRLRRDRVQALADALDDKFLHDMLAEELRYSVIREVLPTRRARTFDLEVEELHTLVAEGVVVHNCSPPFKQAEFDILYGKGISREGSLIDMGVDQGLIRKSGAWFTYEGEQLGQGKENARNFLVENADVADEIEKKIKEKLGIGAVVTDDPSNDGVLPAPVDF

[1] = biological target: Transitional endoplasmic reticulum ATPase (Homo sapiens, UniProt P55072, C522A); test: C522A mutant p97 ATPase inhibitors, dose response, counter-screen for p97 inhibitor project, biochemical, luminescence (AID 1544)
[2] = biological target: T2, Sphingosine 1-phosphate receptor 4 (Homo sapiens, UniProt O95977); test: Fluorescence dose response cell-based high throughput screening assay for antagonists of the Sphingosine 1-Phosphate Receptor 4 (S1P4). [Related pubchem assays: 1524 (Confirmation in triplicates.), 1510 (Primary screen.)]; type: functional
T2 sequence (O95977 whole entry): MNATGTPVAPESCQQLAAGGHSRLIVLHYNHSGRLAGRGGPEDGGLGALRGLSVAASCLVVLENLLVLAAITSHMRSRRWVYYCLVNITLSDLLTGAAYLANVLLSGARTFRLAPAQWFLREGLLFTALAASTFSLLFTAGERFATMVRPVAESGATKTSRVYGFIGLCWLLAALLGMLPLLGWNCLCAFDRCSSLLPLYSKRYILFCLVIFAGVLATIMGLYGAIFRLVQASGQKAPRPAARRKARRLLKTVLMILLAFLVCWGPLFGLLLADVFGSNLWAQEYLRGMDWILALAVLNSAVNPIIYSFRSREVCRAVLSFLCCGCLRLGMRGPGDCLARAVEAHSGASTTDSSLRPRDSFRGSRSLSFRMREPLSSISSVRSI

Hexokinase-1 = biological target: T3, Hexokinase-1 (Homo sapiens, UniProt P19367); test: HK1 enzyme activation by HKDC1 hits – biochemical, selectivity assay for HKDC1 activator project, dose response (AID 504762); type: functional
T3 sequence (P19367 whole entry): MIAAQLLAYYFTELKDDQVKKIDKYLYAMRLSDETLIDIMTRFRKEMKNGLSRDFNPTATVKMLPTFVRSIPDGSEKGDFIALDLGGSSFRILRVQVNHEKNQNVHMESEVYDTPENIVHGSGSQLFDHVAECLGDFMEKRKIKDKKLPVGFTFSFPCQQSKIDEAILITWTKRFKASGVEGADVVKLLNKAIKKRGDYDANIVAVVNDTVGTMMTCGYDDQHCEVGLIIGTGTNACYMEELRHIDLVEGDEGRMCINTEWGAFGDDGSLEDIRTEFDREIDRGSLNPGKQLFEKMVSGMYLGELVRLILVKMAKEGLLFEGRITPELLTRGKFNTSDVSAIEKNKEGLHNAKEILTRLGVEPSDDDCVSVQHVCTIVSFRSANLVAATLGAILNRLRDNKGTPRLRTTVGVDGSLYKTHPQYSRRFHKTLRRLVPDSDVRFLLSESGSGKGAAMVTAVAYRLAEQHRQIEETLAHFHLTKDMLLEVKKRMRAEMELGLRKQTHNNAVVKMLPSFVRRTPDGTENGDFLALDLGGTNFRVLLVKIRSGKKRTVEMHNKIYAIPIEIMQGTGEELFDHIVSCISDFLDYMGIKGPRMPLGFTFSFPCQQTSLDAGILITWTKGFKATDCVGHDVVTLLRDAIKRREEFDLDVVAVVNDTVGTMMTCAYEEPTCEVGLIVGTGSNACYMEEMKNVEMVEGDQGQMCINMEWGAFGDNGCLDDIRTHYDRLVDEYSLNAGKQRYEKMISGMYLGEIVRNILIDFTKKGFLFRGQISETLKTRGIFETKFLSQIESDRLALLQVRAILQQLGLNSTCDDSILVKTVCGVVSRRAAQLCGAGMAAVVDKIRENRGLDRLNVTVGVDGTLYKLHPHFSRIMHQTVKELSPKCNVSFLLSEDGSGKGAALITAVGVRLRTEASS

[3] = Trypanosoma cruzi growth suppression in host cells – NIH3T3 host cells, beta-gal luminescence, confirmation (AID 2044); type: functional, cell-based;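 further: intracellular parasites grown in NIH/3T3 mouse fibroblasts as host cells; luminescent beta-galactosidase reporter signal from transgenic T. cruzi replicating inside host cells; inhibitors lower the luminescence signal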
Caspase-7 = Caspase-7 (Homo sapiens, UniProt P55210); test: caspase-7 enzyme inhibition, selectivity check – biochemical, DEVD-R110 fluorescence, cherry-pick, selectivity assay for caspase-6 inhibitor project, dose response (AID 743295); type: functional
[4] = biological target: T4, Sentrin-specific protease 8 (Homo sapiens, UniProt Q96LD8); test: inhibition of human SENP8 cleavage activity – biochemical, luminescence, SAR follow-up (AID 504501); type: functional
T4 sequence (Q96LD8 whole entry): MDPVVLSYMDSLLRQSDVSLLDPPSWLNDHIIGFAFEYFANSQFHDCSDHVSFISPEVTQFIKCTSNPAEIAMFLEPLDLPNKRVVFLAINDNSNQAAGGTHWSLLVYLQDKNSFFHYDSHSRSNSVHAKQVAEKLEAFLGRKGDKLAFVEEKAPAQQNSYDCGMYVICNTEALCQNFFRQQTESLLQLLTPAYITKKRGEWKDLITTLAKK

[5] = HEK-293T viability loss after treatment – luminescence, T-cell screen hits, cytotoxicity control for TCR NF-kB inhibitor project, dose response (AID 489026); type: functional, cell-based;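 further: cells exposed to compound about 14 hours before the viability readout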
[6] = non-specific 3'UTR reporter inhibition in Clone20-Shn3RL – cell-based, Renilla luciferase, cherry-picked, counter-screen for Shn3 inhibitor project, dose response (AID 624133); type: functional
HEK293 = test: HEK293T cell viability loss, resazurin readout – resazurin fluorescence, cytotoxicity control for NF-kB activator project, SAR follow-up (AID 493251); type: functional, cell-based; details: Homo sapiens
[7] = THP-1 cell cytotoxicity, dose response, cytotoxicity control for non-replicating M. tuberculosis project (AID 489025); type: functional

Transitional endoplasmic reticulum ATPase, sequence (P55072 2-806 C522A limits assumed): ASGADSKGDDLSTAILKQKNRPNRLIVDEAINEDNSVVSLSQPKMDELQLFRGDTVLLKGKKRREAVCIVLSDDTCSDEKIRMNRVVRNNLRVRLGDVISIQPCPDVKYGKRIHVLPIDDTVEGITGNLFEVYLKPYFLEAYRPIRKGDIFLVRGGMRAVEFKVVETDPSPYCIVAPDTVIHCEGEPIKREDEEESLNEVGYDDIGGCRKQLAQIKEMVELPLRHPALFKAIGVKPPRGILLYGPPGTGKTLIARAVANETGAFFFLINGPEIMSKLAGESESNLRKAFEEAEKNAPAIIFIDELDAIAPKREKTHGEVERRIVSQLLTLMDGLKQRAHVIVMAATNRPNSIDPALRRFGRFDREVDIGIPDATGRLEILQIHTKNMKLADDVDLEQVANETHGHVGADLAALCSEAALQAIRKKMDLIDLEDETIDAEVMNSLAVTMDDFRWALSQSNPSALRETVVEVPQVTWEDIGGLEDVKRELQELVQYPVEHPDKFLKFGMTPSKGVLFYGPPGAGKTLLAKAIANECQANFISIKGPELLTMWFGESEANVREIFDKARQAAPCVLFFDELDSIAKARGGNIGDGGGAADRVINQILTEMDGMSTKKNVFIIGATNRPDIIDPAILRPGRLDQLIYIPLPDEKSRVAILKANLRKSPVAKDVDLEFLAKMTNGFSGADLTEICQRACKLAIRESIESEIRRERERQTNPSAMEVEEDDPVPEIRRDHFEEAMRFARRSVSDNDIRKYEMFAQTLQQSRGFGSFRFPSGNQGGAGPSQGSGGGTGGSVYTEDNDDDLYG
Caspase-7, sequence (P55210 24-198 limits assumed): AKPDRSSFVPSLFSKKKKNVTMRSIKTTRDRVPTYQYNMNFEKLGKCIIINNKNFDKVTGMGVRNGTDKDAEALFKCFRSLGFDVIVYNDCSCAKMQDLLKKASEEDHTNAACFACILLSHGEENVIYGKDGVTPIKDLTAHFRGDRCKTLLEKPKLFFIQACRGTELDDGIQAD
Caspase-7, sequence (P55210 207-303 limits assumed): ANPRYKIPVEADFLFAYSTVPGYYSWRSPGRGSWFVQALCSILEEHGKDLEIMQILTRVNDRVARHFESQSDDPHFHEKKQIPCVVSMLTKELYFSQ

In the case of `Cn1nc(-c2ccc(Cl)cc2)nc2c(=O)n(C)c(=O)nc1-2`, the EC50 (Protein RecA) is reported as 0.0305 µM (active), the IC50 [1] is reported as > 50 µM (not active) and the IC50 [2] is reported as 0.396 µM (active).

In the case of `SC1=Nc2ccccc2C1`, the EC50 (Protein RecA) is reported as 1.66 µM (active), the EC50 (Hexokinase-1) is reported as 19.3 µM (active) and the EC50 [3] is reported as 0.487 µM (active).

For `NS(=O)(=O)c1ccc(NC(=O)COC(=O)c2ccc([N+](=O)[O-])s2)cc1`, the AC50 (Caspase-7) was > 22 µM (inactive).

In the case of `CCCCNc1cc(NC(C)=O)cc2cc(OC)c(OC)cc12`, the IC50 [4] is reported as > 99 µM (inactive).

For `COc1ccc(C(NC(=O)C(C)C)c2ccc3cccnc3c2O)cc1` (configuration not stated), the IC50 [5] was > 80 µM (inactive), the AC50 [6] was 2.27 µM (active) and the IC50 (HEK293) was 41.3 µM (inactive).

In the case of `O=C(Cc1ccc([N+](=O)[O-])cc1)N/N=C/c1ccc([N+](=O)[O-])o1`, the CC50 [7] is reported as 6.26 µM (active).
